Publication PMC8534050, “Discovery of a Potent and Highly Isoform-Selective Inhibitor of the Neglected Ribosomal Protein S6 Kinase Beta 2 (S6K2)” (Cancers, 2021)

Assays:
physchem = settings: buffer
Method: The reaction temperature was chosen to be 40 °C.
Glutathione (GSH) Stability Assay
• 0 min: 40% MeOH, 60% phosphate buffer pH 2.3;
• 20 min: 85% MeOH, 15% phosphate buffer pH 2.3;
• 9 min: 95% MeOH, 5% phosphate buffer pH 2.3;
• 10 min: 95% MeOH, 5% phosphate buffer pH 2.3;

CAMKK2 = molecular target: T1, CAMKK2 (Homo sapiens, UniProt Q96RR4); assay: DSF thermal shift assay; assay type: binding; settings: CAMKK2; inhibitor 10 μM, protein 2 μM; read-out: ΔTm
T1 construct: purchased in-house DSF (thermal shift) panel per Fedorov et al
Method: (§1) Differences in the melting temperature (ΔTm) were measured as described by Fedorov et al.. Purified proteins were buffered in 25 mM HEPES (pH 7.5), 500 mM NaCl and were assayed in a 384-well plate with a final protein concentration of 2 μM in 10 μL assay volume. Inhibitors were added to a final concentration of 10 μM using an ECHO 550 acoustic dispenser (Labcyte, San José, CA, USA). As a fluorescence probe, SYPRO-Orange (Molecular Probes, Eugene, OR, USA) was added in a 1:5000 dilution. Filters for excitation and emission were set to 465 nm and 590 nm, respectively. The temperature was increased from 25 °C with 3 °C/min to a final temperature of 95 °C, while scanning, using the QuantStudio5 (Applied Biosystems, Waltham, MA, USA). Data were analyzed through Boltzmann equation in the Protein Thermal Shift software (Applied Biosystems, Waltham, MA, USA). Samples were measured in technical duplicates.

MAPK13 = molecular target: T2, MAPK13 (Homo sapiens, UniProt O15264); assay: DSF thermal shift assay; assay type: binding; settings: MAPK13; inhibitor 10 μM, protein 2 μM; read-out: ΔTm
T2 construct: purchased in-house DSF (thermal shift) panel per Fedorov et al
Method: as §1

RPS6K5 = molecular target: T3, RPS6K5 (Homo sapiens, UniProt O75582); assay: DSF thermal shift assay; assay type: binding; settings: RPS6K5; inhibitor 10 μM, protein 2 μM; read-out: ΔTm
T3 construct: purchased in-house DSF (thermal shift) panel per Fedorov et al
Method: as §1

SLK = molecular target: T4, SLK (Homo sapiens, UniProt Q9H2G2); assay: DSF thermal shift assay; assay type: binding; settings: SLK; inhibitor 10 μM, protein 2 μM; read-out: ΔTm
T4 construct: purchased in-house DSF (thermal shift) panel per Fedorov et al
Method: as §1

PAK1 = molecular target: T5, PAK1 (Homo sapiens, UniProt Q13153); assay: DSF thermal shift assay; assay type: binding; settings: PAK1; inhibitor 10 μM, protein 2 μM; read-out: ΔTm
T5 construct: purchased in-house DSF (thermal shift) panel per Fedorov et al
Method: as §1

PLK4 = molecular target: T6, PLK4 (Homo sapiens, UniProt O00444); assay: DSF thermal shift assay; assay type: binding; settings: PLK4; inhibitor 10 μM, protein 2 μM; read-out: ΔTm
T6 construct: purchased in-house DSF (thermal shift) panel per Fedorov et al
Method: as §1

STK10 = molecular target: T7, STK10 (Homo sapiens, UniProt O94804); assay: DSF thermal shift assay; assay type: binding; settings: STK10; inhibitor 10 μM, protein 2 μM; read-out: ΔTm
T7 construct: purchased in-house DSF (thermal shift) panel per Fedorov et al
T7 sequence (O94804 whole entry): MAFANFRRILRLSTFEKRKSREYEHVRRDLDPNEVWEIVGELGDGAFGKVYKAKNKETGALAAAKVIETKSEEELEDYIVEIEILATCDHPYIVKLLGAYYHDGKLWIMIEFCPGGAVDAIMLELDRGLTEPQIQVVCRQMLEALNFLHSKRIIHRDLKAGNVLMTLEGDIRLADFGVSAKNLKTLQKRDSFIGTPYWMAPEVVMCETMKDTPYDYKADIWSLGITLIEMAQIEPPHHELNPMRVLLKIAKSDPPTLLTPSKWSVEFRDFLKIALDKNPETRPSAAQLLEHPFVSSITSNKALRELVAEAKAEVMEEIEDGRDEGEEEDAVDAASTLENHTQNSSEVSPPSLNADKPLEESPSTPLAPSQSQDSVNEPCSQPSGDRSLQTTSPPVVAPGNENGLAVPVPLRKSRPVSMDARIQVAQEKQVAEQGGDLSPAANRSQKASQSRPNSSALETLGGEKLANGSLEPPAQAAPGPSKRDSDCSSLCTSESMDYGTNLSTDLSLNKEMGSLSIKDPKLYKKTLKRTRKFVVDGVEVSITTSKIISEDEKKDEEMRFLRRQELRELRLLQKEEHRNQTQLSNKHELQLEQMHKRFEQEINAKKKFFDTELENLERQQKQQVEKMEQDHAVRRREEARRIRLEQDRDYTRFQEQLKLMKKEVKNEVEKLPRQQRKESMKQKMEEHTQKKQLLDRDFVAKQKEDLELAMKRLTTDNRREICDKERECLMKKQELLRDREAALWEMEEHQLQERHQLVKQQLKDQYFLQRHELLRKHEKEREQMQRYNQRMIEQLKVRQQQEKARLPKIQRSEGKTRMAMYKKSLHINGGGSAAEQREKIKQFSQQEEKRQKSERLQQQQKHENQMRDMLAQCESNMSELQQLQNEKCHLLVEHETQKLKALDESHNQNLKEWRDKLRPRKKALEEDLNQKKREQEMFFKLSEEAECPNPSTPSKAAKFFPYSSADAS
Method: as §1

OSR1 = molecular target: T8, OSR1 (Homo sapiens, UniProt O95747); assay: DSF thermal shift assay; assay type: binding; settings: OSR1; inhibitor 10 μM, protein 2 μM; read-out: ΔTm
T8 construct: purchased in-house DSF (thermal shift) panel per Fedorov et al
T8 sequence (O95747 whole entry): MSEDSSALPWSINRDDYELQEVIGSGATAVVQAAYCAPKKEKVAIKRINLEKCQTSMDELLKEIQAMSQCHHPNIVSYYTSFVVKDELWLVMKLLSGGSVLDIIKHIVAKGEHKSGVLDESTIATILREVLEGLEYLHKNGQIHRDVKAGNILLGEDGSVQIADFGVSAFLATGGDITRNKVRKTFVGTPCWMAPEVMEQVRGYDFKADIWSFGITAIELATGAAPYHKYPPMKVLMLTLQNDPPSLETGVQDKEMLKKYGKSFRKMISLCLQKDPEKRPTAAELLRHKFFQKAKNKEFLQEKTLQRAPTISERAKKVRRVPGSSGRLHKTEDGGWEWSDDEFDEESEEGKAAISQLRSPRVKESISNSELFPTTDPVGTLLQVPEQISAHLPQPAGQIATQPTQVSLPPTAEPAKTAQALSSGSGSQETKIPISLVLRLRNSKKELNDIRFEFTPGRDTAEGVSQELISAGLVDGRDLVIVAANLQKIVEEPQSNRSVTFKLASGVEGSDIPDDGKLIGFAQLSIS
Method: as §1

NEK2 = molecular target: T9, NEK2 (Homo sapiens, UniProt P51955); assay: DSF thermal shift assay; assay type: binding; settings: NEK2; inhibitor 10 μM, protein 2 μM; read-out: ΔTm
T9 construct: purchased in-house DSF (thermal shift) panel per Fedorov et al
Method: as §1

MERTK = molecular target: T10, MERTK (Homo sapiens, UniProt Q12866); assay: DSF thermal shift assay; assay type: binding; settings: MERTK; inhibitor 10 μM, protein 2 μM; read-out: ΔTm
T10 construct: purchased in-house DSF (thermal shift) panel per Fedorov et al
Method: as §1

STK39 = molecular target: T11, STK39 (Homo sapiens, UniProt Q9UEW8); assay: DSF thermal shift assay; assay type: binding; settings: STK39; inhibitor 10 μM, protein 2 μM; read-out: ΔTm
T11 construct: purchased in-house DSF (thermal shift) panel per Fedorov et al; IC50 follow-up at Reaction Biology Corp
Method: as §1

STK3 = molecular target: T12, STK3 (Homo sapiens, UniProt Q13188); assay: DSF thermal shift assay; assay type: binding; settings: STK3; inhibitor 10 μM, protein 2 μM; read-out: ΔTm
T12 construct: purchased in-house DSF (thermal shift) panel per Fedorov et al
T12 sequence (Q13188 whole entry): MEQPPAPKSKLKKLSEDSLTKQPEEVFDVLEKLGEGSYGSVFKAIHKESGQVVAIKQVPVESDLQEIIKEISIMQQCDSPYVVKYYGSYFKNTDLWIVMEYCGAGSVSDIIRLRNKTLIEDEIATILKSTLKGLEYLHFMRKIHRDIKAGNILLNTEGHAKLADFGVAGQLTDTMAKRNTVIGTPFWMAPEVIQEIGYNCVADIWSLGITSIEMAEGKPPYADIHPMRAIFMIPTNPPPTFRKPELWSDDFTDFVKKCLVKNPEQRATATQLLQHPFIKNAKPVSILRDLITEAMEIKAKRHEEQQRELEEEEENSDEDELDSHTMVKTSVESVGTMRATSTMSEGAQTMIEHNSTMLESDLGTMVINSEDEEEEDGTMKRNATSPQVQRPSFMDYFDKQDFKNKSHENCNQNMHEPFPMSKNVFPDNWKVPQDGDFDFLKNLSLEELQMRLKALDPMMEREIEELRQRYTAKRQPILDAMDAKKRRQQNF
Method: as §1

EPHB3 = molecular target: T13, EPHB3 (Homo sapiens, UniProt P54753); assay: DSF thermal shift assay; assay type: binding; settings: EPHB3; inhibitor 10 μM, protein 2 μM; read-out: ΔTm
T13 construct: purchased in-house DSF (thermal shift) panel per Fedorov et al
Method: as §1

CAMK4 = molecular target: T14, CAMK4 (Homo sapiens, UniProt Q16566); assay: DSF thermal shift assay; assay type: binding; settings: CAMK4; inhibitor 10 μM, protein 2 μM; read-out: ΔTm
T14 construct: purchased in-house DSF (thermal shift) panel per Fedorov et al
Method: as §1

WNK1 = molecular target: T15, WNK1 (Homo sapiens, UniProt Q9H4A3); assay: DSF thermal shift assay; assay type: binding; settings: WNK1; inhibitor 10 μM, protein 2 μM; read-out: ΔTm
T15 construct: purchased in-house DSF (thermal shift) panel per Fedorov et al
Method: as §1

EPHA7 = molecular target: T16, EPHA7 (Homo sapiens, UniProt Q15375); assay: DSF thermal shift assay; assay type: binding; settings: EPHA7; inhibitor 10 μM, protein 2 μM; read-out: ΔTm
T16 construct: purchased in-house DSF (thermal shift) panel per Fedorov et al
T16 sequence (Q15375 28-998): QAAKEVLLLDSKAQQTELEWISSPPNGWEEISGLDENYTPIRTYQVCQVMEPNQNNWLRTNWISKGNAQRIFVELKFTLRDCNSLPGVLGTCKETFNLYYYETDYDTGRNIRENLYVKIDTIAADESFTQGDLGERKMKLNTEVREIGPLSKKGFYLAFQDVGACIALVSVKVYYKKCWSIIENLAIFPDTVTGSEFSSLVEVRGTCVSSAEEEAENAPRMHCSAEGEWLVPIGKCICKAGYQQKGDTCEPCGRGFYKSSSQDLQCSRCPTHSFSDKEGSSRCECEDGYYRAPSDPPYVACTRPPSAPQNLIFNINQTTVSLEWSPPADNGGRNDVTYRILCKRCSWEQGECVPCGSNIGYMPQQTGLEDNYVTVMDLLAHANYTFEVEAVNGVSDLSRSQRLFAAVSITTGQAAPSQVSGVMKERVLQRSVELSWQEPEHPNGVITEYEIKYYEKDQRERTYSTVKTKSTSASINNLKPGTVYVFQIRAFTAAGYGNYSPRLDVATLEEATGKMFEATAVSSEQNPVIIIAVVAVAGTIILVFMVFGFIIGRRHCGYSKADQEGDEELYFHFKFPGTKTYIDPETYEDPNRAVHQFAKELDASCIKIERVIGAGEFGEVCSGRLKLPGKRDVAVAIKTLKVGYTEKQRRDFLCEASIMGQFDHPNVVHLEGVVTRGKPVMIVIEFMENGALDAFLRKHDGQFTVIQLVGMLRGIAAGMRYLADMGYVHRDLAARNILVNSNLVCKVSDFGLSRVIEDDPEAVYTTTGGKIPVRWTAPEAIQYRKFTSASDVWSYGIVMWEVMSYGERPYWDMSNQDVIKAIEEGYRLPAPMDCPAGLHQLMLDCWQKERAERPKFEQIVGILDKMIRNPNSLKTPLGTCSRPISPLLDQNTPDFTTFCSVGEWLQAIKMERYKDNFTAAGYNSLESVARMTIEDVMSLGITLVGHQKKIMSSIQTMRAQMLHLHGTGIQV
Method: as §1

DCAMKL1 = molecular target: T17, DCAMKL1 (Homo sapiens, UniProt O15075); assay: DSF thermal shift assay; assay type: binding; settings: DCAMKL1; inhibitor 10 μM, protein 2 μM; read-out: ΔTm
T17 construct: purchased in-house DSF (thermal shift) panel per Fedorov et al
Method: as §1

MAPK6 = molecular target: T18, MAPK6 (Homo sapiens, UniProt Q16659); assay: DSF thermal shift assay; assay type: binding; settings: MAPK6; inhibitor 10 μM, protein 2 μM; read-out: ΔTm
T18 construct: purchased in-house DSF (thermal shift) panel per Fedorov et al
Method: as §1

DAPK1 = molecular target: T19, DAPK1 (Homo sapiens, UniProt P53355); assay: DSF thermal shift assay; assay type: binding; settings: DAPK1; inhibitor 10 μM, protein 2 μM; read-out: ΔTm
T19 construct: purchased in-house DSF (thermal shift) panel per Fedorov et al
Method: as §1

CDC42BPA = molecular target: T20, CDC42BPA (Homo sapiens, UniProt Q5VT25); assay: DSF thermal shift assay; assay type: binding; settings: CDC42BPA; inhibitor 10 μM, protein 2 μM; read-out: ΔTm
T20 construct: purchased in-house DSF (thermal shift) panel per Fedorov et al
Method: as §1

FGFR4 = molecular target: T21, FGFR4 (Homo sapiens, UniProt P22455); assay: HotSpot kinase assay (Reaction Biology); assay type: biochemical; settings: five-point singlicate
T21 construct: purchased Reaction Biology Corp
T21 sequence (P22455 22-802): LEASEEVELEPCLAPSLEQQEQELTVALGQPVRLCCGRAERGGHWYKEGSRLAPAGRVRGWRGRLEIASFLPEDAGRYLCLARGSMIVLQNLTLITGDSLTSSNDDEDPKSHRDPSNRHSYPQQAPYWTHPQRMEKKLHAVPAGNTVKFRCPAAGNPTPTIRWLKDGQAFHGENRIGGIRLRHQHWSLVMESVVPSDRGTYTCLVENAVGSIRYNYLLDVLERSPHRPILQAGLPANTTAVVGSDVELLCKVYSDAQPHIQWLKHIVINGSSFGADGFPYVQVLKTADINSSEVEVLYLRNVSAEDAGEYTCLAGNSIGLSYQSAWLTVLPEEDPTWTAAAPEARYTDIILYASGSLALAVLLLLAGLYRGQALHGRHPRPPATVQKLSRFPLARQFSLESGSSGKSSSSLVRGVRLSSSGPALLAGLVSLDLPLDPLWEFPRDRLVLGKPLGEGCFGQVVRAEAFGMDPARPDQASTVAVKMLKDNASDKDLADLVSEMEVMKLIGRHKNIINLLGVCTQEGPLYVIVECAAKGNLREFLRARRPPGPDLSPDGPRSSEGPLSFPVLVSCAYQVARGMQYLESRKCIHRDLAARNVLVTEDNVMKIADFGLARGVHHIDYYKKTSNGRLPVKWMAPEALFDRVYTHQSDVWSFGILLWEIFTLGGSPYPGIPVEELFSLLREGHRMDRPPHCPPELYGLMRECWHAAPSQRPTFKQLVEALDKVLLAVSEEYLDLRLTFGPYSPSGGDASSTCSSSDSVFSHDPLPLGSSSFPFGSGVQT
Method: (§2) The provided IC50 values were measured using the HotSpot^TM Kinase Profiling assay and conducted at Reaction Biology Corp. in their facilities in Malvern, PA, USA.

MAPKAPK3 = molecular target: T22, MAPKAPK3 (Homo sapiens, UniProt Q16644); assay: HotSpot kinase assay (Reaction Biology); assay type: biochemical; settings: five-point singlicate, max 5 μM
T22 construct: purchased Reaction Biology Corp
T22 sequence (Q16644 whole entry): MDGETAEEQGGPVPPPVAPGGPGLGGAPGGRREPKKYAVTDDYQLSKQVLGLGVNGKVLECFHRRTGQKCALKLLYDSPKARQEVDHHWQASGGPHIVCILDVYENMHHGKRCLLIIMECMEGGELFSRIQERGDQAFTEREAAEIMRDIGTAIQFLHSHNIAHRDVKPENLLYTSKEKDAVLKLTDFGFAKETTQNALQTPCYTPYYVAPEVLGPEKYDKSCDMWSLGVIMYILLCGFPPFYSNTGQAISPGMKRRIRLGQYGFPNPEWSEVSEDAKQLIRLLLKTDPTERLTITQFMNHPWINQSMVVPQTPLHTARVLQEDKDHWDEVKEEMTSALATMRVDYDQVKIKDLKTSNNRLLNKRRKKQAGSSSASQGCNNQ
Method: as §2

TTK = molecular target: T23, TTK (Homo sapiens, UniProt P33981); assay: HotSpot kinase assay (Reaction Biology); assay type: biochemical; settings: five-point singlicate, max 5 μM
T23 construct: purchased Reaction Biology Corp
Method: as §2

MAPKAPK2 = molecular target: T24, MAPKAPK2 (Homo sapiens, UniProt P49137); assay: HotSpot kinase assay (Reaction Biology); assay type: biochemical; settings: five-point singlicate, max 5 μM
T24 construct: purchased in-house DSF (thermal shift) panel per Fedorov et al; IC50 follow-up at Reaction Biology Corp
T24 sequence (P49137 whole entry): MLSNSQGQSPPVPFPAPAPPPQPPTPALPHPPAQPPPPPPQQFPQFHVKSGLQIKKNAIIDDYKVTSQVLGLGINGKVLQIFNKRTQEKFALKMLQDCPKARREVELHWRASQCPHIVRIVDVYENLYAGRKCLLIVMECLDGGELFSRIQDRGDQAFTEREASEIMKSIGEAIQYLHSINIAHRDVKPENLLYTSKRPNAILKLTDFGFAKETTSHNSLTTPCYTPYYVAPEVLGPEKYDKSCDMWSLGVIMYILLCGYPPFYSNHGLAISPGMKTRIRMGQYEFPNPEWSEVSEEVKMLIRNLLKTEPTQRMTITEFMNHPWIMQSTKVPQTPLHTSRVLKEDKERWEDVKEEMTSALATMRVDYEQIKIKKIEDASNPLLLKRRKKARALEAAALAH
Method: as §2

S6K1 = molecular target: T25, S6K1 (Homo sapiens, UniProt P23443); assay: HotSpot kinase assay (Reaction Biology); assay type: biochemical
T25 construct: purchased Reaction Biology Corp
T25 sequence (P23443 whole entry): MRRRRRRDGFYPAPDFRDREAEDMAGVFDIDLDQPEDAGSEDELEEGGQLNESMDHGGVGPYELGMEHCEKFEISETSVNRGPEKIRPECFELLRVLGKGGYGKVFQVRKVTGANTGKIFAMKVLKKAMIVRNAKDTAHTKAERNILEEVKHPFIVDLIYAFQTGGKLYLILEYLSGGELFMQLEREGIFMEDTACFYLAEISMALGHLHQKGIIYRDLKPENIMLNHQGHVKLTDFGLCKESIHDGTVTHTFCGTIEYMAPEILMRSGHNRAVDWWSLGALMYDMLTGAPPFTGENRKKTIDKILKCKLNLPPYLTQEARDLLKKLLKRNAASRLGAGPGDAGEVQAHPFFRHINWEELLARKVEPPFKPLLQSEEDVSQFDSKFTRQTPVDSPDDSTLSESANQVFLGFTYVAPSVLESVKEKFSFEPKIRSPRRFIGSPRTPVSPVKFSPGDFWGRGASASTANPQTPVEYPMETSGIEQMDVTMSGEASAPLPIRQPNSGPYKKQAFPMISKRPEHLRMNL
Method: as §2

S6K2 = molecular target: T26, S6K2 (Homo sapiens, UniProt Q9UBS0); assay: HotSpot kinase assay (Reaction Biology); assay type: biochemical; settings: apparent IC50; five-point; compound 2 triplicate, ± standard deviation
T26 construct: purchased Reaction Biology Corp
Method: as §2

CCc1cnc(Nc2nc(Cl)ccc2[N+](=O)[O-])nc1N1CCN(Cc2nc3cc(C(F)(F)F)ccc3[nH]2)CC1 [Compound 2]
half-life at […] (physchem): 55 h
ΔTm at 10 µM (CAMKK2): 0.6 °C
ΔTm at 10 µM (MAPK13): -0.6 °C
ΔTm at 10 µM (RPS6K5): 1.5 °C
ΔTm at 10 µM (SLK): 1.9 °C
ΔTm at 10 µM (PAK1): -0.5 °C
ΔTm at 10 µM (PLK4): 0.2 °C
ΔTm at 10 µM (STK10): 1.8 °C
ΔTm at 10 µM (OSR1): 0.4 °C
ΔTm at 10 µM (NEK2): 0.1 °C
ΔTm at 10 µM (MERTK): -0.1 °C
ΔTm at 10 µM (STK39): 0.6 °C
ΔTm at 10 µM (STK3): -0.2 °C
ΔTm at 10 µM (EPHB3): -0.9 °C
ΔTm at 10 µM (CAMK4): 0.1 °C
ΔTm at 10 µM (WNK1): -0.9 °C
ΔTm at 10 µM (EPHA7): 0.5 °C
ΔTm at 10 µM (DCAMKL1): 0.2 °C
ΔTm at 10 µM (MAPK6): 0.2 °C
ΔTm at 10 µM (DAPK1): -0.5 °C
ΔTm at 10 µM (CDC42BPA): 0.3 °C
IC50 (FGFR4): 0.216 µM
IC50 (MAPKAPK3): > 5 µM
IC50 (TTK): > 5 µM
IC50 (MAPKAPK2): > 5 µM
IC50 (S6K1; five-point singlicate, max 5 μM): > 5 µM
activity for S6K1 (S6K1; maximum tested compound concentration of 5 μM): inactive
IC50 (S6K2): 0.022 ± 0.0016 µM
